Experimental data: ChEMBL document CHEMBL3351737, “Design, synthesis and exploring the quantitative structure-activity relationship of some antioxidant flavonoid analogues” (Bioorg Med Chem Lett, 2014)

assay: Antioxidant activity assessed as DPPH radical scavenging activity incubated at room temperature for 20 mins by UV-visible spectrophotometry; settings: not given

Row | SMILES | IC50
1 | O=C(O)c1ccccc1O [SALICYLIC ACID] | 278 mM

same assay, conditions: DPPH radical (cell-free)

Row | SMILES | IC50
2 | O=c1c(O)c(/C=C/c2ccccc2)oc2ccccc12 | 0.039 mM
3 | O=C(/C=C\C=C/c1ccc2c(c1)OCO2)N1CCCCC1 | 90.7 mM
4 | O=c1cc(-c2ccc(Cl)cc2)oc2ccccc12 | 0.725 mM
5 | Cc1ccc(-c2cc(=O)c3ccccc3o2)cc1 | 6.34 mM
6 | O=C(/C=C/C=C/c1ccccc1)c1ccccc1 | 113 mM
7 | O=C(/C=C/c1ccc(Cl)cc1)c1ccccc1O | 6.1 mM
8 | CN(C)c1ccc(-c2oc3ccccc3c(=O)c2O)cc1 | 0.022 mM
9 | O=C(/C=C/C=C/c1ccccc1)c1ccccc1O | 7.13 mM
10 | O=c1c(O)c(-c2ccco2)oc2ccccc12 | 0.034 mM
11 | CN(C)c1ccc(-c2oc3cc(O)cc(O)c3c(=O)c2O)cc1 | 0.612 mM
12 | CC(C)c1ccc(-c2oc3ccccc3c(=O)c2O)cc1 | 11 mM
13 | O=c1c(O)c(-c2ccc(Cl)cc2)oc2cc(O)cc(O)c12 | 27.8 mM
14 | CC(C)(C)c1ccc(/C=C/C(=O)c2ccccc2O)cc1 | 17.1 mM
15 | O=C(/C=C/c1ccco1)c1ccccc1O | 4.27 mM
16 | Cc1ccc(/C=C/C(=O)c2ccccc2O)cc1 | 7.72 mM
17 | O=C(/C=C/c1ccccc1)c1ccccc1O [2'-HYDROXYCHALCONE] | 78 mM
18 | O=C1O[C@H]([C@@H](O)CO)C(O)=C1O [ASCORBIC ACID] | 0.033 mM
19 | COc1ccc(O)c(C(C)(C)C)c1.COc1ccc(O)cc1C(C)(C)C [BUTYLATED HYDROXYANISOLE] | 0.019 mM
20 | O=C/C=C/c1ccccc1 [CINNAMALDEHYDE] | 372 mM
21 | O=C(O)/C=C/c1ccccc1 [CINNAMIC ACID] | 1730 mM
22 | O=Cc1ccco1 [FURFURAL] | 215 mM
23 | O=C(O)c1cc(O)c(O)c(O)c1 [GALLIC ACID] | 0.011 mM
24 | COc1c(-c2ccccc2)oc2c(ccc3occc32)c1=O [KARANJIN] | 4.23 mM
25 | O=C1C[C@@H](c2ccccc2)Oc2cc(O)cc(O)c21 [PINOCEMBRIN] | 59.3 mM
26 | O=Cc1ccccc1O [SALICYLADEHYDE] | 96.6 mM

More lines, now with the values ahead:

Row | IC50 | SMILES
27 | 0.094 mM | O=c1c(O)c(-c2ccc3c(c2)OCO3)oc2ccccc12
28 | 190 mM | COc1ccc(/C=C/C(=O)c2ccccc2O)cc1
29 | 0.663 mM | O=c1c(O)c(-c2ccc(Cl)cc2)oc2ccccc12
30 | 155 mM | CC(=O)c1ccccc1O
31 | 44.3 mM | CC(C)(C)c1ccc(-c2cc(=O)c3ccc(O)cc3o2)cc1
32 | 0.709 mM | CC(C)(C)c1ccc(-c2oc3cc(O)cc(O)c3c(=O)c2O)cc1
33 | 0.452 mM | CC(C)(C)Oc1ccc(-c2oc3cc(O)cc(O)c3c(=O)c2O)cc1
34 | 29.6 mM | CC(C)c1ccc(-c2cc(=O)c3c(O)cc(O)cc3o2)cc1
35 | 0.114 mM | COc1ccc(-c2oc3ccccc3c(=O)c2O)cc1
36 | 682 mM | COc1ccc(-c2cc(=O)c3ccccc3o2)cc1 [4'-METHOXYFLAVONE]
37 | 18.4 mM | O=C(O)/C=C/c1ccc(O)cc1 [COUMARIC ACID]
38 | 0.387 mM | O=c1c(O)c(-c2ccccc2)oc2ccccc12 [FLAVONOL]
39 | 0.191 mM | O=c1c(O)c(-c2ccccc2)oc2cc(O)cc(O)c12 [GALANGIN]
40 | 11.6 mM | COc1c(C(=O)/C=C(\O)c2ccccc2)ccc2occc12 [PONGAMOL]
41 | 0.012 mM | Cc1c(C)c2c(c(C)c1O)CCC(C)(C(=O)O)O2 (stereo unspecified) [TROLOX]
